In experiment [1] the test system is NQO1 activity in Hepa1c1c7 cells. Kind of experiment: NAD(P)H: quinone oxidoreductase-1 (NQO1) enzyme induction assay (in vitro). Type of experiment: cell-based, mouse. Conditions: about 48 hr, ratio from the base without the compound; for fold induction at 0.4 µM: Mus musculus, Hepa-1c1c7, NQO1 activity upon addition of 400 nM of test compound. On the procedure: Experimental Example 2: NAD(P)H: Quinone Oxidoreductase-1 (NQO1) Enzyme Induction Assay (In Vitro)
The NQO1 assay was performed based on a previous report (Methods in Enzymology 2004; 382: 243-258). Hepa1c1c7 cells (mouse hepatocyte cell line, ATCC, cat. no. CRL-2026) were cultured in D-MEM medium containing 10% FBS and 1% penicillin/streptomycin (5% CO2, 37° C.), and seeded into 96-well plates (Corning REF. 353072) at 1×10^4 cells/well. A portion of the wells were prepared with medium only for background measurement without seeding cells. The next day, 400 nM of the test compound (0.004% of the final concentration in DMSO) dissolved in DMSO was added thereto, and the wells were incubated for about 48 hr. A well without adding the test compound was prepared for base activity assay in part.
Cell lysate (solution containing 0.8% digitonin, 2 mM EDTA), reaction solution (solution containing 25 mM Tris-HCl, 0.07% albumin, 0.01% Tween-20, 2 U/mL glucose-6-phosphate dehydrogenase, 5 μM flavin adenine dinucleotide, 1 μM glucose-6-phosphate, 30 μM nicotinamide adenine dinucleotide phosphate, 0.03% 3-(4,5-dimethyl-2-thiazolyl)-2,5-diphenyltetrazolium bromide (MTT), and 50 μM menadione), stop solution (solution containing 0.3 mM dicoumarol and 5 mM potassium dihydrogen phosphate, pH 7.4) were prepared. After the medium was removed, 50 μL of the cell lysate was added and incubated at 37° C. for 10 minutes, followed by shaking at room temperature for 10 minutes. 200 μL of reaction solution was added thereto, and allowed to stand for 5 minutes at room temperature. 50 μL of the stop solution was added thereto, and absorbance was measured at 610 nm on a SpectraMax PLUS384 (Molecular devices) or POWERSCAN HT (DS Pharma Biomedical). The test results were analyzed in Excel, and the NQO1 activity upon addition of 400 nM of test compound was calculated as a ratio from the base without the compound.
The results of each test compound in this test are shown in the following Table 2 (A: 5<NQO1 activity ratio, B: 3<NQO1 activity ratio 5, C: 1.5<NQO1 activity ratio 3).

For experiment [2], the target named is GST-fused human Keap1 (amino acid residues: 325-642) protein (Homo sapiens (Human), UniProt Q14145). The experiment in a line: FP assay (in vitro): inhibition of binding between Nrf2 and Keap1 by fluorescence polarization. Particulars: 20 nM GST-fused human Keap1, 10 nM FITC-labeled Nrf2 peptide, 2 hr at room temperature. How it is done: Experimental Example 1: FP Assay (In Vitro)
The inhibitory activity of test compounds on the binding between Nrf2 and Keap1 was determined by fluorescence polarization. A solution of 50 mM Tris-HCl pH.8.0 (NACALAI, REF: 06938-15), and 5 mM DTT (SIGMA-ALDRICH, REF: 646563-10X.5 mL) was used as a buffer solution. 8 μL of a buffer solution containing 40 nM GST-fused human Keap1 (amino acid residues: 325-642) protein (Protein tech, REF: Ag0779) was taken in a black 384-well plate (final concentration 20 nM), and 4 μL of the test compound solution prepared to each concentration in buffer solution was added thereto. A well containing a portion of the buffer solution without Keap1 was placed as a negative control. A well with no compound was used as a positive control. 40 nM of FITC-labeled Nrf2 peptide (FITC-X-LQLDEETGEFLPIQ (X=ε-Acp), Peptide Institute Inc.) was added thereto (10 nM final concentration). The wells were incubated at room temperature for 2 hr, and then fluorescence polarization was measured with a plate reader SPECTRAMAX Paradigm (Molecular devices) at excitation wavelength of 485 nm and fluorescence wavelength of 535 nm. The fluorescence polarization of the negative control was set to 100% inhibition and that of the positive control to 0% inhibition, and the inhibitory rate upon addition of the test compound was calculated using the following formula.

What is called fold induction is the signal under treatment as a multiple of the control signal. The term IC50 denotes the concentration that gives 50% inhibition. Lower therefore signals higher potency.

Chain of GST-fused human Keap1 (amino acid residues: 325-642) protein (Q14145 325-624 limits assumed): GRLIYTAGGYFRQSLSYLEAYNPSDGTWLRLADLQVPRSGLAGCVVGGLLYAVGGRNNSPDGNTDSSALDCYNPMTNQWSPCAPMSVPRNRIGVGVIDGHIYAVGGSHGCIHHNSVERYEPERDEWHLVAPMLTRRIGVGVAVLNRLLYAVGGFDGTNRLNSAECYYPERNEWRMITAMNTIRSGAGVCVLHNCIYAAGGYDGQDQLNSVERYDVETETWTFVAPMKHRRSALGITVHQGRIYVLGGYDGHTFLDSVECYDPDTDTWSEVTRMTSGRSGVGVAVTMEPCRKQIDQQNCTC

Take `CC[C@@H]1CN(Cc2cc([C@@H](CC(=O)O)c3ccc4c(nnn4CC(F)(F)F)c3C)cc3ccsc23)Cc2nc(O)ccc2O1` (single isomer, unassigned) [Example 27]: in experiment [1], the fold induction at 0.4 µM is > 5. The molecule further showed an IC50 in experiment [2] of 0.01 to 0.03 µM.
In experiment [2], `CC[C@@H]1CN(Cc2cc([C@@H](CC(=O)O)c3ccc4c(nnn4CC(F)(F)F)c3C)cc3ccsc23)Cc2nc(O)ccc2O1` (single isomer, unassigned) [Example 28] gave an IC50 of 0.01 to 0.03 µM.
As to `CC[C@@H]1CN(Cc2cc([C@@H](CC(=O)O)c3ccn4c(C)nnc4c3C)cc3ccsc23)Cc2nc(O)ccc2O1` (single isomer, unassigned) [Example 52, (3R*)-3-(3,8-Dimethyl[1,2,4]triazolo[4,3-a]pyridin-7-yl)-3-(7-{[(2R)-2-ethyl-7-hydroxy-2,3-dihydropyrido[2,3-f][1,4]oxazepin-4(5H)-yl]methyl}-1-benzothiophen-5-yl)propanoic acid], the fold induction at 0.4 µM in experiment [1] lay within 3 to 5. Also, the IC50 in experiment [2] fell in the range of 0.03 to 0.3 µM.
Turning to `CC[C@@H]1CN(Cc2cc([C@@H](CC(=O)O)c3ccn4c(C)nnc4c3C)cc3ccsc23)Cc2nc(O)ccc2O1` (single isomer, unassigned) [Example 53, (3S*)-3-(3,8-Dimethyl[1,2,4]triazolo[4,3-a]pyridin-7-yl)-3-(7-{[(2R)-2-ethyl-7-hydroxy-2,3-dihydropyrido[2,3-f][1,4]oxazepin-4(5H)-yl]methyl}-1-benzothiophen-5-yl)propanoic acid], in experiment [1] (NQO1 activity upon addition of 400 nM of test compound), the activity ratio result is given as “B (B: 3<NQO1 activity ratio 5)”. In addition, the IC50 in experiment [2] lay within 0.01 to 0.03 µM.
Take `Cc1c(C(CC(=O)O)c2cc(CN3Cc4nc(O)ccc4OC4(CC4)[C@H]3C)c3sccc3c2)ccc2c1nnn2C` (single isomer, unassigned) [Example 58, (3R*)-3-(1,4-Dimethyl-1H-benzotriazol-5-yl)-3-(7-{[(3′R)-7′-hydroxy-3′-methyl-3′H-spiro[cyclopropane-1,2′-pyrido[2,3-f][1,4]oxazepin]-4′ (5′H)-yl]methyl}-1-benzothiophen-5-yl)propanoic acid]: the fold induction at 0.4 µM in experiment [1] lay in the range of 1.5 to 3. The IC50 in experiment [2] was in the range of 0.3 to 3 µM.
In the case of `Cc1c(C(CC(=O)O)c2cc(CN3Cc4nc(O)ccc4OC4(CC4)[C@H]3C)c3sccc3c2)ccc2c1nnn2C` (single isomer, unassigned) [Example 59, (3S*)-3-(1,4-Dimethyl-1H-benzotriazol-5-yl)-3-(7-{[(3′R)-7′-hydroxy-3′-methyl-3′H-spiro[cyclopropane-1,2′-pyrido[2,3-f][1,4]oxazepin]-4′ (5′H)-yl]methyl}-1-benzothiophen-5-yl)propanoic acid], the IC50 in experiment [2] was in the range of 0.3 to 3 µM.
`Cc1c(C(CC(=O)O)c2cc(CN3Cc4nc(O)ccc4OC4(CC4)[C@@H]3C)c3sccc3c2)ccc2c1nnn2C` (single isomer, unassigned) [Example 60, (3R*)-3-(1,4-Dimethyl-1H-benzotriazol-5-yl)-3-(7-{[(3′S)-7′-hydroxy-3′-methyl-3′H-spiro[cyclopropane-1,2′-pyrido[2,3-f][1,4]oxazepin]-4′(5′H)-yl]methyl}-1-benzothiophen-5-yl)propanoic acid]: the fold induction at 0.4 µM in experiment [1] was > 5. In experiment [2], this molecule returned an IC50 of 0.03 to 0.3 µM.
On to `Cc1c(C(CC(=O)O)c2cc(CN3Cc4nc(O)ccc4OC4(CC4)[C@@H]3C)c3sccc3c2)ccc2c1nnn2C` (single isomer, unassigned) [Example 61, (3S*)-3-(1,4-Dimethyl-1H-benzotriazol-5-yl)-3-(7-{[(3′S)-7′-hydroxy-3′-methyl-3′H-spiro[cyclopropane-1,2′-pyrido[2,3-f][1,4]oxazepin]-4′ (5′H)-yl]methyl}-1-benzothiophen-5-yl)propanoic acid], for which the IC50 in experiment [2] was 0.03 to 0.3 µM.
Take `CC[C@@H]1CN(Cc2cc(C(CC(=O)O)c3ccc4c(nnn4C)c3C)cc3ccsc23)Cc2ncc(O)cc2O1` (single isomer, unassigned) [Example 65, (3R*)-3-(1,4-Dimethyl-1H-benzotriazol-5-yl)-3-(7-{[(2R)-2-ethyl-8-hydroxy-2,3-dihydropyrido[2,3-f][1,4]oxazepin-4(5H)-yl]methyl}-1-benzothiophen-5-yl)propanoic acid]: in experiment [1], the fold induction at 0.4 µM is > 5. In experiment [2], this molecule returned an IC50 of 0.03 to 0.3 µM.
`CC[C@@H]1CN(Cc2cc(C(CC(=O)O)c3ccc4c(nnn4C)c3C)cc3ccsc23)Cc2ncc(O)cc2O1` (single isomer, unassigned) [Example 66, (3S*)-3-(1,4-Dimethyl-1H-benzotriazol-5-yl)-3-(7-{[(2R)-2-ethyl-8-hydroxy-2,3-dihydropyrido[2,3-f][1,4]oxazepin-4(5H)-yl]methyl}-1-benzothiophen-5-yl)propanoic acid] showed an IC50 in experiment [2] of 0.03 to 0.3 µM.
For the molecule `Cc1c([C@H](CC(=O)O)c2cc(CN3Cc4nc(O)ccc4CC(C4CC4)C3)c3sccc3c2)ccc2c1nnn2C` (single isomer, unassigned) [Example 88, (3R)-3-(7-{[(6S*)-6-Cyclopropyl-2-hydroxy-5,6,7,9-tetrahydro-8H-pyrido[2,3-c]azepin-8-yl]methyl}-1-benzothiophen-5-yl)-3-(1,4-dimethyl-1H-benzotriazol-5-yl)propanoic acid], in experiment [1], the fold induction at 0.4 µM is > 5. This molecule showed an IC50 in experiment [2] of 0.03 to 0.3 µM.
In turn, `Cc1c([C@H](CC(=O)O)c2cc(CN3Cc4nc(O)ccc4CC(C4CC4)C3)c3sccc3c2)ccc2c1nnn2C` (single isomer, unassigned) [Example 89, (3R)-3-(7-{[(6R*)-6-Cyclopropyl-2-hydroxy-5,6,7,9-tetrahydro-8H-pyrido[2,3-c]azepin-8-yl]methyl}-1-benzothiophen-5-yl)-3-(1,4-dimethyl-1H-benzotriazol-5-yl)propanoic acid] had an IC50 in experiment [2] of 0.03 to 0.3 µM.
For `Cc1c([C@H](CC(=O)O)c2cc(CN3Cc4nc(O)ccc4CC(C4CC4)C3)c3sccc3c2)cnc2c1nnn2C` (single isomer, unassigned) [Example 90, (3R)-3-(7-{[(6R*)-6-Cyclopropyl-2-hydroxy-5,6,7,9-tetrahydro-8H-pyrido[2,3-c]azepin-8-yl]methyl}-1-benzothiophen-5-yl)-3-(3,7-dimethyl-3H-[1,2,3]triazolo[4,5-b]pyridin-6-yl)propanoic acid], the fold induction at 0.4 µM in experiment [1] is > 5. The IC50 in experiment [2] lay in the range of 0.03 to 0.3 µM.
Take `Cc1c([C@H](CC(=O)O)c2cc(CN3Cc4nc(O)ccc4CC(C4CC4)C3)c3sccc3c2)cnc2c1nnn2C` (single isomer, unassigned) [Example 91, (3R)-3-(7-{[(6S*)-6-Cyclopropyl-2-hydroxy-5,6,7,9-tetrahydro-8H-pyrido[2,3-c]azepin-8-yl]methyl}-1-benzothiophen-5-yl)-3-(3,7-dimethyl-3H-[1,2,3]triazolo[4,5-b]pyridin-6-yl)propanoic acid]: the IC50 in experiment [2] fell in the range of 0.03 to 0.3 µM.
In the case of `CC[C@@H]1CN(Cc2cc([C@H](CC(=O)O)c3ccc4c(nnn4C)c3C)cc3ccsc23)Cc2nc(O)ccc2O1` [Example 1, (3S)-3-(1,4-Dimethyl-1H-benzotriazol-5-yl)-3-(7-{[(2R)-2-ethyl-7-hydroxy-2,3-dihydropyrido[2,3-f][1,4]oxazepin-4(5H)-yl]methyl}-1-benzothiophen-5-yl)propanoic acid], the fold induction at 0.4 µM in experiment [1] was > 5. This molecule had an IC50 in experiment [2] of 0.01 to 0.03 µM.
With `CC[C@@H]1CN(Cc2cc([C@H](c3ccc4c(nnn4C)c3C)C(C)(C)C(=O)O)cc3ccsc23)Cc2nc(O)ccc2O1` [Example 12, (3R)-3-(1,4-Dimethyl-1H-benzotriazol-5-yl)-3-(7-{[(2R)-2-ethyl-7-hydroxy-2,3-dihydropyrido[2,3-f][1,4]oxazepin-4(5H)-yl]methyl}-1-benzothiophen-5-yl)-2,2-dimethylpropanoic acid], in experiment [2], the IC50 is 0.3 to 3 µM.

Values taken from patent US20250296939A1, “BENZOTHIOPHENE COMPOUND” (Kyoto Pharmaceutical Industries, Ltd., priority 2022, published 2025).
